#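 Method: 48-hour compound exposure of cells in 96-well plates, five concentrations, linear interpolation of endpoints. Abbreviation: GI50, concentration required for 50% inhibition of growth. Definition used: TGI = concentration required for complete inhibition of growth.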
# Tests used:
# Assay in all cases: NCI-60 cell line screen, 48 h
# [1] = system: 786-0 renal
# [2] = system: A549 NSCLC
# [3] = system: ACHN renal
# [4] = system: COLO 205 colon
# [5] = system: DU-145 prostate
# [6] = system: EKVX NSCLC
# [7] = system: HCT-116 colon
# [8] = system: HCT-15 colon
# [9] = system: HOP-62 NSCLC
# [10] = system: HS 578T breast
# [11] = system: HT29 colon
# [12] = system: IGROV1 ovarian
# [13] = system: LOX IMVI melanoma
# [14] = system: M14 melanoma
# [15] = system: MALME-3M melanoma
# [16] = system: MDA-MB-231 breast
# [17] = system: MDA-N
# [18] = system: MOLT-4 leukemia
# [19] = system: NCI-H460 lung
# [20] = system: NCI-H522 lung
# [21] = system: NCI/ADR-RES ovarian
# [22] = system: OVCAR-3 ovarian
# [23] = system: OVCAR-4 ovarian
# [24] = system: OVCAR-8 ovarian
# [25] = system: PC-3 prostate
# [26] = system: SF-268 CNS
# [27] = system: SF-295 CNS
# [28] = system: SK-MEL-2 melanoma
# [29] = system: SK-MEL-5 melanoma
# [30] = system: SK-OV-3 ovarian
# [31] = system: SN12C renal
# [32] = system: SNB-75 CNS
# [33] = system: SR leukemia
# [34] = system: SW-620 colon
# [35] = system: T-47D breast
# [36] = system: UACC-257 melanoma
# [37] = system: UACC-62 melanoma
# [38] = system: A498 renal
# [39] = system: CAKI-1 renal
# [40] = system: CCRF-CEM leukemia
# [41] = system: HL-60(TB) leukemia
# [42] = system: HOP-92 NSCLC
# [43] = system: K-562 leukemia
# [44] = system: KM12 colon
# [45] = system: MCF7 breast
# [46] = system: MDA-MB-435
# [47] = system: OVCAR-5 ovarian
# [48] = system: RPMI-8226 leukemia
# [49] = system: RXF 393 renal
# [50] = system: SK-MEL-28 melanoma
# [51] = system: SNB-19 CNS
# [52] = system: TK-10 renal
# [53] = system: U251 CNS
# [54] = system: UO-31 renal
# [55] = system: BT-549 breast
# [56] = system: HCC-2998 colon
# [57] = system: NCI-H226 lung
# [58] = system: NCI-H23 lung
# [59] = system: SF-539 CNS
smiles,measurement,setting,value
CN(Cc1cnc2nc(N)nc(N)c2n1)c1ccc(C(=O)NC(CCC(=O)NCC(P(=O)(O)O)P(=O)(O)O)C(=O)O)cc1 (centres undefined),TGI,[1],> 100 µM
same,TGI,[2],> 100 µM
same,TGI,[3],> 100 µM
same,TGI,[4],> 100 µM
same,TGI,[5],> 100 µM
same,TGI,[6],> 100 µM
same,TGI,[7],> 100 µM
same,TGI,[8],> 100 µM
same,TGI,[9],68 µM
same,TGI,[10],> 100 µM
same,TGI,[11],> 100 µM
same,TGI,[12],> 100 µM
same,TGI,[13],> 100 µM
same,TGI,[14],> 100 µM
same,TGI,[15],> 100 µM
same,TGI,[16],> 100 µM
same,TGI,[17],> 100 µM
same,TGI,[18],> 100 µM
same,TGI,[19],> 100 µM
same,TGI,[20],> 100 µM
same,TGI,[21],> 100 µM
same,TGI,[22],> 100 µM
same,TGI,[23],> 100 µM
same,TGI,[24],> 100 µM
same,TGI,[25],> 100 µM
same,TGI,[26],> 100 µM
same,TGI,[27],> 100 µM
same,TGI,[28],> 100 µM
same,TGI,[29],> 100 µM
same,TGI,[30],> 100 µM
same,TGI,[31],> 100 µM
same,TGI,[32],> 100 µM
same,TGI,[33],> 100 µM
same,TGI,[34],> 100 µM
same,TGI,[35],> 100 µM
same,TGI,[36],> 100 µM
same,TGI,[37],> 100 µM
COc1cc(/C=C2\CCC(C)C3=C2NC(=S)NC3c2cc(OC)c(OC)c(OC)c2)cc(OC)c1OC (centres undefined),TGI,[1],> 100 µM
same,TGI,[38],> 100 µM
same,TGI,[2],> 100 µM
same,TGI,[3],> 100 µM
same,TGI,[39],> 100 µM
same,TGI,[40],> 100 µM
same,TGI,[5],> 100 µM
same,TGI,[6],> 100 µM
same,TGI,[7],> 100 µM
same,TGI,[8],> 100 µM
same,TGI,[41],39.7 µM
same,TGI,[9],> 100 µM
same,TGI,[42],> 100 µM
same,TGI,[10],> 100 µM
same,TGI,[11],> 100 µM
same,TGI,[12],> 100 µM
same,TGI,[43],> 100 µM
same,TGI,[44],> 100 µM
same,TGI,[13],> 100 µM
same,TGI,[14],> 100 µM
same,TGI,[45],> 100 µM
same,TGI,[16],> 100 µM
same,TGI,[46],> 100 µM
same,TGI,[17],> 100 µM
same,TGI,[18],92.4 µM
same,TGI,[23],> 100 µM
same,TGI,[47],> 100 µM
same,TGI,[24],> 100 µM
same,TGI,[25],> 100 µM
same,TGI,[48],68.4 µM
same,TGI,[49],> 100 µM
same,TGI,[26],> 100 µM
same,TGI,[28],> 100 µM
same,TGI,[50],> 100 µM
same,TGI,[29],59 µM
same,TGI,[30],> 100 µM
same,TGI,[31],> 100 µM
same,TGI,[51],> 100 µM
same,TGI,[32],66.3 µM
same,TGI,[33],> 100 µM
same,TGI,[34],> 100 µM
same,TGI,[52],> 100 µM
same,TGI,[53],> 100 µM
same,TGI,[36],> 100 µM
same,TGI,[37],> 100 µM
same,TGI,[54],66 µM
O=C1CC(=O)OC(c2ccc([N+](=O)[O-])cc2)O1,GI50,[1],1.81 µM
same,TGI,[1],3.36 µM
same,GI50,[38],2.76 µM
same,TGI,[38],7.72 µM
same,GI50,[2],2.6 µM
same,TGI,[2],7.78 µM
same,GI50,[3],1.68 µM
same,TGI,[3],3.16 µM
same,GI50,[55],2 µM
same,TGI,[55],3.87 µM
same,GI50,[39],1.44 µM
same,TGI,[39],3.24 µM
same,GI50,[40],2.45 µM
same,TGI,[40],8.79 µM
same,GI50,[4],1.79 µM
same,TGI,[4],3.41 µM
same,GI50,[5],1.63 µM
same,TGI,[5],3.2 µM
same,GI50,[6],3.56 µM
same,TGI,[6],18.3 µM
same,GI50,[56],1.76 µM
same,TGI,[56],3.18 µM
same,GI50,[7],1.61 µM
same,TGI,[7],3.12 µM
same,GI50,[8],2.25 µM
same,TGI,[8],7.15 µM
same,GI50,[41],2.01 µM
same,TGI,[41],5.51 µM
same,GI50,[9],2.47 µM
same,TGI,[9],6.79 µM
same,GI50,[42],0.23 µM
same,TGI,[42],3.71 µM
same,GI50,[10],2.7 µM
same,TGI,[10],11.9 µM
same,GI50,[11],1.9 µM
same,TGI,[11],3.73 µM
same,GI50,[12],3.1 µM
same,TGI,[12],14.3 µM
same,GI50,[43],2.56 µM
same,TGI,[43],> 100 µM
same,GI50,[44],1.95 µM
same,TGI,[44],4.03 µM
same,GI50,[13],1.68 µM
same,TGI,[13],3.17 µM
same,GI50,[14],1.97 µM
same,TGI,[14],4 µM
same,GI50,[15],2.28 µM
same,TGI,[15],7.02 µM
same,GI50,[45],1.59 µM
same,TGI,[45],3.84 µM
same,GI50,[16],2.21 µM
same,TGI,[16],5.09 µM
same,GI50,[46],2.59 µM
same,TGI,[46],8.62 µM
same,GI50,[18],2.66 µM
same,TGI,[18],8.41 µM
same,GI50,[57],2.07 µM
same,TGI,[57],5.5 µM
same,GI50,[58],2.15 µM
same,TGI,[58],5.2 µM
same,GI50,[19],2.4 µM
same,TGI,[19],5.9 µM
same,GI50,[20],1.38 µM
same,TGI,[20],2.72 µM
same,GI50,[21],3.19 µM
same,TGI,[21],14.1 µM
same,GI50,[22],1.77 µM
same,TGI,[22],3.37 µM
same,GI50,[23],2.82 µM
same,TGI,[23],8.91 µM
same,GI50,[47],2.04 µM
same,TGI,[47],4.93 µM
same,GI50,[24],2.42 µM
same,TGI,[24],7.83 µM
same,GI50,[25],2.36 µM
same,TGI,[25],6.43 µM
same,GI50,[48],2.51 µM
same,TGI,[48],7.33 µM
same,GI50,[49],1.77 µM
same,TGI,[49],3.23 µM
same,GI50,[26],2.93 µM
same,TGI,[26],11 µM
same,GI50,[27],4.85 µM
same,TGI,[27],14 µM
same,GI50,[59],1.98 µM
same,TGI,[59],4.3 µM
same,GI50,[28],2.31 µM
same,TGI,[28],5.85 µM
same,GI50,[50],1.93 µM
same,TGI,[50],4.08 µM
same,GI50,[29],1.72 µM
same,TGI,[29],3.39 µM
same,GI50,[30],7.05 µM
same,TGI,[30],19.2 µM
same,GI50,[31],1.94 µM
same,TGI,[31],4.23 µM
same,GI50,[51],3.43 µM
same,TGI,[51],12.3 µM
same,GI50,[32],1.44 µM
same,TGI,[32],3.12 µM
same,GI50,[33],2.62 µM
same,TGI,[33],9.09 µM
same,GI50,[34],1.68 µM
same,TGI,[34],3.41 µM
same,GI50,[35],1.93 µM
same,TGI,[35],4.1 µM
same,GI50,[52],1.92 µM
same,TGI,[52],4.53 µM
same,GI50,[53],1.61 µM
same,TGI,[53],3.11 µM
same,GI50,[36],1.66 µM
same,TGI,[36],3.36 µM
same,GI50,[37],2.14 µM
same,TGI,[37],5.54 µM
same,GI50,[54],1.64 µM
same,TGI,[54],3.55 µM

# — PubChem BioAssay (NCI)
